melting point [°C]	Compound
195 to 197	COc1cn(-c2ccncc2)nc(-c2ccnn2-c2ccccc2)c1=O [Example 87, 5-Methoxy-3-(1-phenyl-1H-pyrazol-5-yl)-1-pyridin-4-ylpyridazin-4(1H)-one]
137 to 139	CC(C)Oc1cn(-c2cccc(C(F)(F)F)c2)nc(-c2ccnn2-c2ccccc2)c1=O [Example 60, 5-(1-Methylethoxy)-3-(1-phenyl-1H-pyrazol-5-yl)-1-[3-(trifluoromethyl)phenyl]pyridazin-4(1H)-one]
241 to 243	O=c1cc(O)n(-c2cccc(C(F)(F)F)c2)nc1-c1ccnn1-c1ccccc1 [Example 69, 6-Hydroxy-3-(1-phenyl-1H-pyrazol-5-yl)-1-[3-(trifluoromethyl)phenyl]pyridazin-4(1H)-one]
145 to 146	O=c1ccn(-c2ccccc2C(F)(F)F)nc1-c1ccnn1-c1ccccc1 [Example 22, 3-(1-Phenyl-1H-pyrazol-5-yl)-1-[2-(trifluoromethyl)phenyl]pyridazin-4(1H)-one]
137 to 139	COCc1cn(-c2cccc(C(F)(F)F)c2)nc(-c2ccnn2-c2ccccc2)c1=O [Example 66, 5-(Methoxymethyl)-3-(1-phenyl-1H-Pyrazol-5-yl)-1-[3-(trifluoromethyl)phenyl]pyridazin-4(1H)-one]
139 to 140	O=c1ccn(-c2cccc(C(F)(F)F)c2)nc1-c1ccnn1-c1ccccc1Cl [Example 8, 3-[1-(2-Chlorophenyl)-1H-pyrazol-5-yl]-1-[3-(trifluoromethyl)phenyl]pyridazin-4(1H)-one]
147 to 150	Cc1cn(-c2cccc(C(F)(F)F)c2)nc(-c2ccnn2-c2ccccc2)c1=O [Example 50, 5-Methyl-3-(1-phenyl-1H-pyrazol-5-yl)-1-[3-(trifluoromethyl)phenyl]pyridazin-4(1H)-one]
142 to 143	Cc1cccc(-n2nccc2-c2nn(-c3cccc(C(F)(F)F)c3)ccc2=O)c1 [Example 5, 3-[1-(3-Methylphenyl)-1H-pyrazol-5-yl]-1-[3-(trifluoromethyl)phenyl]pyridazin-4(1H)-one]
156 to 157	O=c1ccn(-c2cccc(C(F)(F)F)c2)nc1-c1ccnn1Cc1ccccc1 [Example 153, 3-(1-Benzyl-1H-pyrazol-5-yl)-1-[3-(trifluoromethyl)phenyl]pyridazin-4(1H)-one]
210 to 212	COc1cn(-c2cccnc2)nc(-c2ccnn2-c2ccccc2)c1=O [Example 173, 5-Methoxy-3-(1-phenyl-1H-pyrazol-5-yl)-1-pyridin-3-ylpyridazin-4(1H)-one]
173 to 174	COc1ccc(-n2nccc2-c2nn(-c3cccc(C(F)(F)F)c3)ccc2=O)cc1 [Example 4, 3-[1-(4-Methoxyphenyl)-1H-pyrazol-5-yl]-1-[3-(trifluoromethyl)phenyl]pyridazin-4(1H)-one]
237 to 238	O=c1ccn(-c2ccc(C(F)(F)F)cc2)nc1-c1ccnn1-c1ccccc1 [Example 11, 3-(1-Phenyl-1H-pyrazol-5-yl)-1-[4-(trifluoromethyl)phenyl]pyridazin-4(1H)-one]
169 to 171	COc1cn(-c2ccc(C(F)(F)F)cc2F)nc(-c2ccnn2-c2ccccc2)c1=O [Example 56, 1-[2-Fluoro-4-(trifluoromethyl)phenyl]-5-methoxy-3-(1-phenyl-1H-pyrazol-5-yl)pyridazin-4(1H)-one]
126 to 127	Cc1ccccc1-n1nccc1-c1nn(-c2cccc(C(F)(F)F)c2)ccc1=O [Example 7, 3-[1-(2-Methylphenyl)-1H-pyrazol-5-yl]-1-[3-(trifluoromethyl)phenyl]pyridazin-4(1H)-one]

More lines, now with the values behind:

Compound	melting point [°C]
COc1cn(-c2cccc3c2OC(F)(F)O3)nc(-c2ccnn2-c2ccccc2)c1=O [Example 90, 1-(2,2-Difluoro-1,3-benzodioxol-4-yl)-5-methoxy-3-(1-phenyl-1H-pyrazol-5-yl)pyridazin-4(1H)-one]	181 to 183
O=c1ccn(-c2cccc(OC(F)F)c2)nc1-c1ccnn1-c1ccccc1 [Example 27, 1-[3-(Difluoromethoxy)phenyl]-3-(1-phenyl-1H-pyrazol-5-yl)pyridazin-4(1H)-one]	159 to 160
Cc1ccc(-n2ccc(=O)c(-c3ccnn3-c3ccccc3)n2)cc1 [Example 25, 1-(4-Methylphenyl)-3-(1-phenyl-1H-pyrazol-5-yl)pyridazin-4(1H)-one]	182 to 183
O=c1ccn(-c2cccc(Cl)c2)nc1-c1ccnn1-c1ccccc1 [Example 12, 1-(3-Chlorophenyl)-3-(1-phenyl-1H-pyrazol-5-yl)pyridazin-4(1H)-one]	146 to 147
CC(C)n1ncc(-c2nn(-c3cccc(C(F)(F)F)c3)ccc2=O)c1-c1ccccc1 [Example 78, 3-[1-(1-Methylethyl)-5-phenyl-1H-pyrazol-4-yl]-1-[3-(trifluoromethyl)phenyl]pyridazin-4(1H)-one]	183 to 186
Cn1cc(-c2nn(-c3cccc(C(F)(F)F)c3)ccc2=O)c(-c2ccccc2)n1 [Example 76, 3-(1-Methyl-3-phenyl-1H-pyrazol-4-yl)-1-[3-(trifluoromethyl)phenyl]pyridazin-4(1H)-one]	181 to 183
O=c1ccn(-c2cccc(C(F)(F)F)c2)nc1-c1nncn1-c1ccccc1 [Example 40, 3-(4-Phenyl-4H-1,2,4-triazol-3-yl)-1-[3-(trifluoromethyl)phenyl]pyridazin-4(1H)-one]	103 to 104
O=c1ccn(-c2cccc3c2OC(F)(F)O3)nc1-c1ccnn1-c1ccccc1 [Example 142, 1-(2,2-Difluoro-1,3-benzodioxol-4-yl)-3-(1-phenyl-1H-pyrazol-5-yl)pyridazin-4(1H)-one]	105 to 107
O=c1ccn(-c2ccc(Cl)cc2)nc1-c1ccnn1-c1ccccc1 [Example 18, 1-(4-Chlorophenyl)-3-(1-phenyl-1H-pyrazol-5-yl)pyridazin-4(1H)-one]	219 to 220
O=c1ccn(-c2cccc(C(F)(F)F)c2)nc1-c1ccnn1CC1CC1 [Example 152, 3-[1-(Cyclopropylmethyl)-1H-pyrazol-5-yl]-1-[3-(trifluoromethyl)phenyl]pyridazin-4(1H)-one]	155 to 157
O=c1ccn(-c2cccc(C(F)(F)F)c2)nc1-c1conc1-c1ccccc1 [Example 79, 3-(3-Phenylisoxazol-4-yl)-1-[3-(trifluoromethyl)phenyl]pyridazin-4(1H)-one]	217 to 219
COc1cn(-c2ccc(N3CC4(CC4)OC3=O)cc2F)nc(-c2ccnn2-c2ccccc2)c1=O [Example 191, 6-{3-Fluoro-4-[5-methoxy-4-oxo-3-(1-phenyl-1H-pyrazol-5-yl)pyridazin-1(4H)-yl]phenyl}-4-oxa-6-azaspiro[2.4]heptan-5-one]	200 to 201
COc1ccc(-n2ccc(=O)c(-c3ccnn3-c3ccccc3)n2)cc1 [Example 14, 1-(4-Methoxyphenyl)-3-(1-phenyl-1H-pyrazol-5-yl)pyridazin-4(1H)-one]	179 to 180
COc1cn(-c2ccc(I)cc2F)nc(-c2ccnn2-c2ccccc2)c1=O [Example 55, 1-(2-Fluoro-4-iodophenyl)-5-methoxy-3-(1-phenyl-1H-pyrazol-5-yl)pyridazin-4(1H)-one]	194 to 196
O=c1ccn(-c2ccccc2N2CCOCC2)nc1-c1ccnn1-c1ccccc1 [Example 29, 1-(2-Morpholin-4-ylphenyl)-3-(1-phenyl-1H-pyrazol-5-yl)pyridazin-4(1H)-one]	200 to 201
Cc1nnc(-c2nn(-c3cccc(C(F)(F)F)c3)ccc2=O)n1-c1ccccc1 [Example 41, 3-(5-Methyl-4-phenyl-4H-1,2,4-triazol-3-yl)-1-[3-(trifluoromethyl)phenyl]pyridazin-4(1H)-one]	191 to 192
COc1cn(-c2ccc(OCc3ccccc3)cc2F)nc(-c2ccnn2-c2ccccc2)c1=O [Example 68, 1-[4-(Benzyloxy)-2-fluorophenyl]-5-methoxy-3-(1-phenyl-1H-pyrazol-5-yl)pyridazin-4(1H)-one]	181 to 183
O=c1ccn(-c2cccc(C(F)(F)F)c2)nc1-n1ccnc1-c1ccccc1 [Example 81, 3-(2-Phenyl-1H-imidazol-1-yl)-1-[3-(trifluoromethyl)phenyl]pyridazin-4(1H)-one]	204 to 205
COc1ccc(Cn2nccc2-c2nn(-c3cccc(C(F)(F)F)c3)ccc2=O)cc1 [Example 154, 3-[1-(4-Methoxybenzyl)-1H-pyrazol-5-yl]-1-[3-(trifluoromethyl)phenyl]pyridazin-4(1H)-one]	159 to 161
Cn1ncc(-c2nn(-c3cccc(C(F)(F)F)c3)ccc2=O)c1-c1ccccc1 [Example 75, 3-(1-Methyl-5-phenyl-1H-pyrazol-4-yl)-1-[3-(trifluoromethyl)phenyl]pyridazin-4(1H)-one]	193 to 195
O=c1ccn(-c2cccc(C(F)(F)F)c2)nc1-c1ccsc1-c1ccccc1 [Example 86, 3-(2-Phenylthiophen-3-yl)-1-[3-(trifluoromethyl)phenyl]pyridazin-4(1H)-one]	167 to 168
COc1cn(-c2cc3c(cc2F)OC(F)(F)C(F)(F)O3)nc(-c2ccnn2-c2ccccc2)c1=O [Example 96, 5-Methoxy-1-(2,2,3,3,7-pentafluoro-2,3-dihydro-1,4-benzodioxin-6-yl)-3-(1-phenyl-1H-pyrazol-5-yl)pyridazin-4(1H)-one]	192 to 194
O=c1ccn(-c2ccccc2)nc1-c1ccnn1-c1ccccc1 [Example 24, 1-Phenyl-3-(1-phenyl-1H-pyrazol-5-yl)pyridazin-4(1H)-one]	179 to 180
O=c1ccn(-c2ccc(OC(F)F)cc2)nc1-c1ccnn1-c1ccccc1 [Example 28, 1-[4-(Difluoromethoxy)phenyl]-3-(1-phenyl-1H-pyrazol-5-yl)pyridazin-4(1H)-one]	175 to 176
COc1cn(-c2cc(N3CCCC3=O)ccc2F)nc(-c2ccnn2-c2ccccc2)c1=O [Example 182, 1-[2-Fluoro-5-(2-oxopyrrolidin-1-yl)phenyl]-5-methoxy-3-(1-phenyl-1H-pyrazol-5-yl)pyridazin-4(1H)-one]	171 to 174

— patent publication US8513251B2, “Pyridazinone compounds” (Takeda Pharmaceutical Company Limited, priority 2009, dated 2013)
